Assay results from patent US20200275624A1, “A METHOD FOR PRODUCING BANANA PLANTS WITH TOLERANCE TO FUSARIUM OXYSPORUM CUBENSIS TR4” (RAHAN MERISTEM (1998) LTD, priority 2017, published 2020).

Tested on: banana meristems
Test: Micropropagation of banana meristems in media comprising a cytokinin-like substance
Format: cell-based
Conditions: meristematic tissue propagation; compared with other cytokinin-like substances; TDZ in the range of 0.1 ppm
Source text: In some embodiments, during the propagation stage, and typically before exposure to the demethylating agent, the meristematic tissues are propagated, at least in one propagating cycle, in a media comprising a cytokinin-like substance. Cytokinin like substances are known in the art, and non-limiting examples, include isopentenyl adenine (2iP), kinetin (KIN), 6-Benzyladenin (BA) and 6-Benzylaminopurine (BAP), 1-phenyl-3-(1,2,3-thiadiazol-5-yl) urea (TDZ).
The presence of TDZ in the culture media is in very low amounts, typically, in the range of 0.1 ppm. This amount is sufficient to induce the desired cell division.
On the 7th cycle of propagation 0.1 ppm Thidiazuron (TDZ) was added to the medium. In cycles 20 and 21, 30 μM 5-Aza-2-Deoxycytidine (a demethylation compound) was filter sterilized and added to the medium after solidification.

O=C(Nc1ccccc1)Nc1cnns1 [TDZ, 1-phenyl-3-(1,2,3-thiadiazol-5-yl) urea]
rate of multiplication: best rate of multiplication
